IC50, EC50 and CC50 data for 13 compounds are collected here from patent publication US11952365B2, “Anti-viral compounds” (Aligos Therapeutics, Inc., priority 2020, dated 2024).

In data set [1] the target is HRV3C (Human rhinovirus 14, UniProt P03303). Description: HRV3C protease assay (duplex, SAMDI-MS). The format is biochemical, HRV. Conditions: 30 mins preincubation. The method, boiled down:
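Readout is SAMDI mass spectrometry: biotinylated substrates, products and internal standards were immobilized on neutravidin monolayers and product formation taken as the AUC ratio to internal standard. Reactions ran 30 min at ambient temperature after 30 min compound preincubation, in duplex with 3CLpro. IC50 values came from four-parameter curve fitting.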

In data set [2] the test system is human beta-coronavirus OC43. Description: microbe, parasite or virus in culture. It is filed as cell-based. The note with it: Betacoronavirus 1, OC43, HeLa, 144 h.
Data set [3] in a line: Cytotoxicity plates without OC43 virus (cell-titer-glo). The format is cell-based, human. The note with it: human; HeLa cells without OC43 virus, class symbols. The essentials: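 Run as a virus-free counterpart of the OC43 cytopathic-effect assay. Attached HeLa cells received compound dilutions in EMEM with 2% FBS and were kept 6 days at 33 °C. Cell viability was then measured by CellTiter-Glo luminescence.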

The subject of data set [4] is SARS-CoV-2-GHB-03021/2020. The experiment in a line: SARS-CoV-2 Infection Model in Huh7 Cells. It is filed as cell-based. The note with it: Severe acute respiratory syndrome coronavirus 2, Huh-7, 96 h, SARS-CoV-2, day 4 p.i., MTS.
The target of data set [5] is T1, human cathepsin L (Homo sapiens, UniProt P07711).
T1 construct: purchased R&D Systems
The experiment in a line: cathepsin L assay. The format is biochemical. Conditions: 10 pM human cathepsin L, Z-FR-AMC 2 μM, class symbols. The essentials:
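Reactions began by adding 2 μM (final) Z-FR-AMC substrate to 10 pM human cathepsin L that had been preincubated 30 min with inhibitor. Kinetic AMC fluorescence at 355/460 nm over 30 min at 2-min intervals; four-parameter fitting gave IC50 values.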

A short description of data set [6]: in vitro. The note with it: human.
Data set [7] has as its target 3CLpro (Severe acute respiratory syndrome coronavirus 2, UniProt P0DTD1). Description: SARS-CoV-2 3CLpro protease assay (duplex, SAMDI-MS). The format is biochemical. Also on record: For the duplex assay, 3CLpro and HRV3C was added. The note with it: 3CLpro, 30 mins preincubation, read-out: SARS-Cov-2 IC50.
Setting [8] is: HRV3C, class symbols, read-out: HRV IC50.
[9] abbreviates: OC43 in HeLa cells, 6 days at 33° C., class symbols, read-out: EC50.
The mark [10] stands for this setting: HRV3C, bound, read-out: HRV IC50.
The mark [11] stands for this setting: OC43 in HeLa cells, 6 days at 33° C., bound, read-out: EC50.

Where two headings read alike, the source gives them in different places. A value given as a limit tells only on which side of the number the result lay.

`O=C(NCc1ccccc1)C(=O)C(C[C@@H]1CCCNC1=O)NC(=O)[C@@H]1[C@H]2CCC[C@H]2CN1C(=O)c1cc2ccccc2[nH]1` (stereo partly drawn) [Compound 17, (1S,3aR,6aS)—N-(4-(benzylamino)-3,4-dioxo-1-((S)-2-oxopiperidin-3-yl)butan-2-yl)-2-(1H-indole-2-carbonyl)octahydrocyclopenta[c]pyrrole-1-carboxamide]: the IC50 – broadly, the concentration that gives 50% inhibition – in data set [1] (setting [8]) fell in the range of 2 to 20 µM; in data set [5] it was 1 to 10 µM; in data set [7] (class symbols) it was 0.02 to 0.2 µM. The EC50 (in general, the concentration giving half of the maximal effect) in data set [2] (setting [9]) lay within 0.1 to 1 µM; in data set [4] (class symbols), 1 to 10 µM. For the same compound, in data set [3], the CC50 at 6 days was more than 10 µM. In data set [6], this compound came in with a CC50 of more than 10 µM.
Regarding `COc1cccc2[nH]c(C(=O)N3C[C@@H]4CCC[C@@H]4[C@H]3C(=O)N[C@@H](C[C@@H]3CCNC3=O)C(=O)CO)nc12` [Compound 37], the figures for the IC50 in data set [1] (setting [8]), in data set [5] and in data set [7] (class symbols) were 20 to 100 µM, not below 10 µM and 0.02 to 0.2 µM, respectively. Besides, the concentration for a half-maximal effect (EC50) in data set [2] (setting [9]) and in data set [4] (class symbols) was 1 to 10 µM in each case. In data set [3], the CC50 at 6 days is more than 10 µM. The compound also yielded a CC50 in data set [6] of more than 100 µM.
For the compound `COc1cccc2[nH]c(C(=O)N3C[C@@H]4CCC[C@@H]4[C@H]3C(=O)NC(C[C@@H]3CCNC3=O)C(=O)C(N)=O)cc12` (stereo partly drawn) [Compound 56, 3-{[(1S,3aR,6aS)-2-(4-methoxy-1H-indole-2-carbonyl)-hexahydro-1H-cyclopenta[c]pyrrol-1-yl]formamido}-2-oxo-4-[(3S)-2-oxopyrrolidin-3-yl]butanamide], the IC50 in data set [1] (setting [8]) was 0.2 to 2 µM; in data set [5], not below 10 µM; in data set [7] (class symbols), 0.02 to 0.2 µM. For the same compound, the 50% effective concentration (EC50) in data set [2] (setting [9]) and in data set [4] (class symbols) was 10 to 100 µM throughout. The same compound gave a CC50 at 6 days in data set [3] of more than 10 µM. In data set [6], this compound returned a CC50 of more than 100 µM.
Take `COc1cccc2[nH]c(C(=O)N3C[C@H]4[C@@H]([C@H]3C(=O)N[C@@H](C[C@@H]3CCCNC3=O)C(=O)C(=O)NC3CC3)C4(C)C)cc12` [Compound 57, (3S)—N-cyclopropyl-3-{[(1R,2S,5S)-3-(4-methoxy-1H-indole-2-carbonyl)-6,6-dimethyl-3-azabicyclo[3.1.0]hexan-2-yl]formamido}-2-oxo-4-[(3S)-2-oxopiperidin-3-yl]butanamide]: the values for the IC50 in data set [1] (setting [8]), in data set [5] and in data set [7] (class symbols) were 0.2 to 2 µM, not below 10 µM and 0.02 to 0.2 µM, respectively. For the same compound, the EC50 is 0.1 to 1 µM in data set [2] (setting [9]) and 1 to 10 µM in data set [4] (class symbols). The CC50 at 6 days in data set [3] was more than 10 µM. Besides, the CC50 in data set [6] is more than 100 µM.
On to `N#Cc1cccc2[nH]c(C(=O)N3C[C@@H]4CCC[C@@H]4[C@H]3C(=O)N[C@@H](C[C@@H]3CCNC3=O)C(=O)CO)cc12` [Compound 66, (1S,3aR,6aS)-2-(4-cyano-1H-indole-2-carbonyl)-N-[(2S)-4-hydroxy-3-oxo-1-[(3S)-2-oxopyrrolidin-3-yl]butan-2-yl]-hexahydro-1H-cyclopenta[c]pyrrole-1-carboxamide], for which the IC50 is more than 10 µM in data set [1] (setting [10]), not below 10 µM in data set [5] and 0.02 to 0.2 µM in data set [7] (class symbols). Besides, the figures for the half-maximal effective concentration (EC50) in data set [2] (setting [9]) and in data set [4] (class symbols) were 1 to 10 µM and 10 to 100 µM, respectively. For the same compound, the CC50 at 6 days in data set [3] was more than 10 µM. Also, the CC50 in data set [6] was more than 100 µM.
`N#Cc1cccc2[nH]c(C(=O)N3C[C@@H]4CCC[C@@H]4[C@H]3C(=O)NC(C[C@@H]3CCNC3=O)C(=O)COCc3ccccc3)cc12` (stereo partly drawn) [Compound 66A, (1S,3aR,6aS)—N-[4-(benzyloxy)-3-oxo-1-[(3S)-2-oxopyrrolidin-3-yl]butan-2-yl]-2-(4-cyano-1H-indole-2-carbonyl)-hexahydro-1H-cyclopenta[c]pyrrole-1-carboxamide]: the IC50 is more than 10 µM in data set [1] (setting [10]), not below 10 µM in data set [5] and 0.2 to 2 µM in data set [7] (class symbols). In addition, the EC50 in data set [2] (setting [9]) lay within 0.1 to 1 µM; in data set [4] (class symbols), 1 to 10 µM. The CC50 at 6 days in data set [3] was more than 10 µM. In data set [6], this compound registered a CC50 of more than 10 µM.
In the case of `COc1ccnc2[nH]c(C(=O)N3C[C@@H]4CCC[C@@H]4[C@H]3C(=O)N[C@@H](C[C@@H]3CCNC3=O)C(=O)CO)cc12` [Compound 67, (1S,3aR,6aS)—N-[(2S)-4-hydroxy-3-oxo-1-[(3S)-2-oxopyrrolidin-3-yl]butan-2-yl]-2-{4-methoxy-1H-pyrrolo[2,3-b]pyridine-2-carbonyl}-hexahydro-1H-cyclopenta[c]pyrrole-1-carboxamide], the IC50 was more than 10 µM in data set [1] (setting [10]), not below 10 µM in data set [5] and 0.02 to 0.2 µM in data set [7] (class symbols). For the same compound, the EC50 was 1 to 10 µM in data set [2] (setting [9]) and 10 to 100 µM in data set [4] (class symbols). Moreover, the CC50 at 6 days in data set [3] is more than 10 µM. The same compound showed a CC50 in data set [6] of more than 100 µM.
On to `COc1c(Cl)ccc2[nH]c(C(=O)N3C[C@@H]4CCC[C@@H]4[C@H]3C(=O)N[C@@H](C[C@@H]3CCNC3=O)C(=O)CO)cc12` [Compound 68, (1S,3aR,6aS)-2-(5-chloro-4-methoxy-1H-indole-2-carbonyl)-N—((S)-4-hydroxy-3-oxo-1-((S)-2-oxopyrrolidin-3-yl)butan-2-yl)octahydrocyclopenta[c]pyrrole-1-carboxamide], for which the concentration for half-maximal inhibition (IC50) is more than 10 µM in data set [1] (setting [10]), not below 10 µM in data set [5] and 0.02 to 0.2 µM in data set [7] (class symbols). For the same compound, the EC50 in data set [2] (setting [9]) fell in the range of 0.1 to 1 µM; in data set [4] (class symbols) it was 1 to 10 µM. This compound also gave a CC50 at 6 days in data set [3] of more than 10 µM. In addition, the CC50 in data set [6] is more than 100 µM.
Regarding `COCC(=O)[C@H](C[C@@H]1CCNC1=O)NC(=O)[C@@H]1[C@H]2CCC[C@H]2CN1C(=O)c1cc2c(OC)cccc2[nH]1` [Compound 71, (1S,3aR,6aS)-2-(4-methoxy-1H-indole-2-carbonyl)-N-[(2S)-4-methoxy-3-oxo-1-[(3S)-2-oxopyrrolidin-3-yl]butan-2-yl]-hexahydro-1H-cyclopenta[c]pyrrole-1-carboxamide], the half-inhibitory concentration (IC50) in data set [1] (HRV IC50, HRV3C, bound) is more than 10 µM; in data set [5], not below 10 µM; in data set [7] (class symbols), 0.2 to 2 µM. Further, the EC50 in data set [2] (setting [9]) was 0.1 to 1 µM; in data set [4] (class symbols), 1 to 10 µM. This compound also registered a CC50 at 6 days in data set [3] of more than 10 µM. Further, the CC50 in data set [6] was more than 100 µM.
Consider `COc1cccc2oc(C(=O)N3C[C@@H]4CCC[C@@H]4[C@H]3C(=O)N[C@@H](C[C@@H]3CCNC3=O)C(=O)CO)cc12` [Compound 94, (1S,3aR,6aS)—N-[(2S)-4-hydroxy-3-oxo-1-[(3S)-2-oxopyrrolidin-3-yl]butan-2-yl]-2-(4-methoxy-1-benzofuran-2-carbonyl)-hexahydro-1H-cyclopenta[c]pyrrole-1-carboxamide], for which the half-maximal inhibitory concentration (IC50) in data set [1] (setting [10]) was more than 10 µM; in data set [5], not below 10 µM; in data set [7] (class symbols), 0.2 to 2 µM. The EC50 was 1 to 10 µM in data set [2] (setting [9]) and 10 to 100 µM in data set [4] (class symbols). Also, the CC50 at 6 days in data set [3] is more than 10 µM. In data set [6], this compound registered a CC50 of more than 100 µM.
As to `O=C(NCc1ccccc1)C(=O)[C@H](Cc1cc[nH]n1)NC(=O)[C@@H]1CC2(CC2)CN1C(=O)c1cc2ccccc2[nH]1` [Compound 96, (S)—N—((S)-4-(benzylamino)-3,4-dioxo-1-(1H-pyrazol-3-yl)butan-2-yl)-5-(1H-indole-2-carbonyl)-5-azaspiro[2.4]heptane-6-carboxamide], the IC50 in data set [1] (HRV IC50, HRV3C, bound) was more than 10 µM; in data set [5], 1 to 10 µM; in data set [7] (class symbols) it was 2 to 20 µM. Also, the results for the EC50 in data set [2] and in data set [4] (numeric bounds) were 1 to 10 µM and more than 100 µM, respectively. Besides, the CC50 at 6 days in data set [3] is more than 10 µM. The compound further had a CC50 in data set [6] of more than 10 µM.
Consider `COc1cccc2[nH]c(C(=O)N3Cc4ccccc4C[C@H]3C(=O)N[C@@H](C[C@@H]3CCNC3=O)C(=O)C(=O)NC3CC3)cc12` [Compound 97, (S)—N—((S)-4-(cyclopropylamino)-3,4-dioxo-1-((S)-2-oxopyrrolidin-3-yl)butan-2-yl)-2-(4-methoxy-1H-indole-2-carbonyl)-1,2,3,4-tetrahydroisoquinoline-3-carboxamide], for which the IC50 in data set [1] (HRV IC50, HRV3C, class symbols) is 0.02 to 0.2 µM; in data set [5] it was not below 10 µM; in data set [7] (class symbols), 0.2 to 2 µM. Besides, the concentration giving a half-maximal response (EC50) was more than 10 µM in data set [2] (setting [11]) and more than 100 µM in data set [4] (numeric bounds). This compound returned a CC50 at 6 days in data set [3] of more than 10 µM. In addition, the CC50 in data set [6] is more than 100 µM.
In the case of `O=C(NCc1ccccc1)C(=O)[C@H](Cc1ccncc1)NC(=O)[C@@H]1CC2(CC2)CN1C(=O)c1cc2ccccc2[nH]1` [Compound 112], the IC50 in data set [1] (setting [10]) is more than 10 µM; in data set [5] it was 1 to 10 µM; in data set [7] (bound), more than 10 µM. In addition, the EC50 in data set [2] (setting [11]) was more than 10 µM; in data set [4] (numeric bounds) it was more than 100 µM. Besides, the CC50 at 6 days in data set [3] was more than 10 µM. Besides, the CC50 in data set [6] is more than 10 µM.
